Experimental data taken from ChEMBL document CHEMBL4364251, “Design, synthesis and biological evaluation of new quinoline derivatives as potential antitumor agents” (Eur J Med Chem, 2019).
The source made the active and inactive calls. The calls are words filed in the database; no cut-off is given here.

Tests used:
[1] = system: HCT-116; test: Induction of apoptosis in human HCT116 cells assessed as early apoptotic cells at 4 uM incubated for 24 hrs in presence of pan-caspase inhibitor z-VAD-FMK by annexin-V-FITC/PI staining based FACS analysis (reference value: 8.08%); format: functional
[2] = system: Mus musculus; test: Antitumour activity against mouse […] cells implanted in BALB/c mouse assessed as decrease in tumour volume at 80 mg/kg administered once every three days for 21 days post tumour implantation and measured at day 13 by caliper method; format: functional, organism-based
[3] = system: A549; test: Antiproliferative activity against human A549 cells incubated for 48 hrs by MTT assay; format: functional, cell-based; conditions: A549, 48 h
[4] = system: HCT-116; test: Induction of apoptosis in human HCT116 cells assessed as viable cells at 8 uM incubated for 24 hrs in presence of pan-caspase inhibitor z-VAD-FMK by annexin-V-FITC/PI staining based FACS analysis (reference value: 85.28%); format: functional; conditions: HCT-116, 24 h, read-out: Activity
[5] = system: HCT-116; test: Induction of apoptosis in human HCT116 cells assessed as early apoptotic cells at 8 uM incubated for 24 hrs by annexin-V-FITC/PI staining based FACS analysis (reference value: 1.77 to 3.38%); format: functional
[6] = system: HCT-116; test: Induction of autophagy in human HCT116 cells assessed as decrease in ATG5 protein expression level incubated for 24 hrs by Western blot analysis; format: functional, cell-based
[7] = system: HCT-116; test: Induction of apoptosis in human HCT116 cells assessed as necrotic cells at 8 uM incubated for 24 hrs by annexin-V-FITC/PI staining based FACS analysis (reference value: 0.71 to 2.26%); format: functional
[8] = system: HCT-116; test: Induction of apoptosis in human HCT116 cells assessed as early apoptotic cells at 4 uM incubated for 24 hrs by annexin-V-FITC/PI staining based FACS analysis (reference value: 1.77 to 3.38%); format: functional
[9] = system: HCT-116; test: Induction of apoptosis in human HCT116 cells deficient in ATG7 assessed as viable cells at 8 uM incubated for 24 hrs by annexin-V-FITC/PI staining based FACS analysis (reference value: 85.27%); format: functional; conditions: HCT-116, 24 h, read-out: Activity
[10] = system: HeLa; test: Antiproliferative activity against human HeLa cells incubated for 48 hrs by MTT assay; format: functional, cell-based
[11] = Antitumour activity against mouse […] cells implanted in BALB/c mouse assessed inhibition in tumour growth at 80 mg/kg administered once every three days for 21 days post tumour implantation relative to control; format: functional; conditions: read-out: TGI
[12] = system: BGC-823; test: Antiproliferative activity against human BGC823 cells incubated for 48 hrs by MTT assay; format: functional, cell-based; conditions: BGC-823, 48 h
[13] = system: HCT-116; test: Induction of apoptosis in human HCT116 cells deficient in ATG7 assessed as late apoptotic cells at 8 uM incubated for 24 hrs by annexin-V-FITC/PI staining based FACS analysis (Rvb =6.56%); format: functional
[14] = system: HCT-116; test: Induction of apoptosis in human HCT116 cells assessed as late apoptotic cells at 4 uM incubated for 24 hrs in presence of pan-caspase inhibitor z-VAD-FMK by annexin-V-FITC/PI staining based FACS analysis (reference value: 6.04%); format: functional
[15] = system: HCT-116; test: Induction of apoptosis in human HCT116 cells assessed as increase in cleaved PARP protein expression level at 4 to 8 uM incubated for 24 hrs by Western blot analysis; format: functional, cell-based
[16] = system: HCT-116; test: Induction of apoptosis in human HCT116 cells assessed as late apoptotic cells at 4 uM incubated for 24 hrs by annexin-V-FITC/PI staining based FACS analysis (reference value: 1.55 to 1.56%); format: functional
[17] = system: RKO; test: Growth inhibition of human RKO cells at 1 uM by CCK-8 assay; format: functional, cell-based; conditions: TDE = time-dependent effect
[18] = system: HCT-116; test: Induction of apoptosis in human HCT116 cells deficient in ATG7 assessed as early apoptotic cells at 8 uM incubated for 24 hrs by annexin-V-FITC/PI staining based FACS analysis (reference value: 2.32%); format: functional
[19] = system: HCT-116; test: Induction of morphological changes in human HCT116 cells assessed as reduction in cell number at 4 to 10 uM incubated for 24 hrs by phase-contrast microscopic method; format: functional, cell-based
[20] = system: HCT-116; test: Induction of apoptosis in human HCT116 cells assessed as increase in cleaved PARP protein expression level at 4 to 8 uM incubated for 24 hrs in presence of pan-caspase inhibitor z-VAD-FMK by Western blot analysis; format: functional, cell-based
[21] = system: HCT-116; test: Antiproliferative activity against human HCT116 cells incubated for 48 hrs by MTT assay; format: functional, cell-based; conditions: HCT-116, 48 h
[22] = system: HCT-116; test: Antiproliferative activity against human HCT116 expressing p53 (-/-) at 1 to 16 uM assessed as decrease cell viability incubated for 24 hrs by CCK-8 assay; format: functional, cell-based
[23] = system: HCT-116; test: Induction of autophagy in human HCT116 cells assessed as decrease in ATG7 protein expression level incubated for 24 hrs by Western blot analysis; format: functional, cell-based
[24] = system: HCT-116; test: Induction of autophagy in human HCT116 cells assessed as increase in LC3B-2 protein expression level at 6 uM by Western blot analysis; format: functional, cell-based; conditions: TDE = time-dependent effect
[25] = system: HCT-116; test: Induction of apoptosis in human HCT116 cells deficient in p53 assessed as increase in pro-caspase3 protein expression level at 4 to 8 uM incubated for 24 hrs by Western blot analysis; format: functional, cell-based
[26] = system: HCT-116; test: Induction of apoptosis in human HCT116 cells assessed as necrotic cells at 8 uM incubated for 24 hrs in presence of pan-caspase inhibitor z-VAD-FMK by annexin-V-FITC/PI staining based FACS analysis (reference value: 0.6%); format: functional
[27] = system: HCT-116; test: Induction of apoptosis in human HCT116 cells assessed as early apoptotic cells incubated for 24 hrs by annexin-V-FITC/PI staining based FACS analysis; format: functional, cell-based
[28] = Toxicity in BALB/c mouse xenografted with mouse […] cells at 80 mg/kg administrated once every three days for 21 days; format: organism-based; conditions: in vivo, 504 h
[29] = system: HCT-116; test: Induction of apoptosis in human HCT116 cells assessed as necrotic cells at 4 uM incubated for 24 hrs in presence of pan-caspase inhibitor z-VAD-FMK by annexin-V-FITC/PI staining based FACS analysis (reference value: 0.6%); format: functional
[30] = system: HCT-116; test: Induction of autophagy in human HCT116 cells deficient in ATG5 assessed as increase in LC3B-2 protein expression level at 4 to 8 uM by Western blot analysis; format: functional, cell-based
[31] = system: HCT-116; test: Growth inhibition of human HCT116 cells incubated for 24 hrs by CCK-8 assay; format: functional, cell-based
[32] = system: HCT-116; test: Induction of apoptosis in human HCT116 cells assessed as early apoptotic cells at 8 uM incubated for 24 hrs in presence of pan-caspase inhibitor z-VAD-FMK by annexin-V-FITC/PI staining based FACS analysis (reference value: 8.08%); format: functional
[33] = system: HCT-116; test: Induction of autophagy in human HCT116 cells expressed with LC3B-EGFP-mCheery assessed as LC3 assembly on membrane of autophagosome incubated for 24 hrs by DAPI staining based confocal microscopic method; format: functional, cell-based
[34] = system: HCT-116; test: Induction of morphological changes in human HCT116 cells assessed as cell shrinkage at 4 to 10 uM incubated for 24 hrs by phase-contrast microscopic method; format: functional, cell-based

In the case of COc1cccc(Nc2ccnc3cc(OCCCc4ccccc4)ccc23)c1, the Activity [1] is reported as 15.45%, the Activity [2] is reported as “Active” and the IC50 [3] is reported as 8.22 µM. The viability at 8 µM [4] was 62.9%, the Activity [5] was 17.9 - 18.35% and the Activity [6] was “Dose-dependent effect”. The Activity [7] was 2.19 - 5.82%, the Activity [8] was 11.97% and the viability at 8 µM [9] was 76.7%. The IC50 [10] was 2.71 µM, the inhibition in vivo at 80 mg/kg [11] was 82.1% and the IC50 [12] was 9.08 µM. The Activity [13] was 11.04%, the Activity [14] was 8.17% and the Activity [15] was “Active”. The Activity [16] was 11.64%, the “growth inhibition (GI)” value [17] was “Tde” and the Activity [18] was 5.26%. For the same compound, the Activity [19] was “Active”, the Activity [20] was “Active” and the IC50 [21] was 2.56 µM. The Activity [22] was “Active”, the Activity [23] was “Dose-dependent effect” and the Activity [24] was “Tde”. The Activity [25] was “Active”, the Activity [26] was 1.71% and the Activity [27] was “Dose-dependent effect”. For the same compound, the Activity [28] was “Non-Toxic”, the Activity [29] was 1.3% and the Activity [30] was “inactive”. For the same compound, the “growth inhibition (GI)” value [31] was “Dose-dependent effect”, the Activity [32] was 19.42% and the Activity [33] was “Dose-dependent effect”. For the same compound, the Activity [34] was “Active”.
